# Legend:
# [1] = system: Escherichia coli ATCC 25922; assay: Minimum inhibitory concentration (MIC), CLSI broth micro-dilution, E. coli; assay type: cell-based; conditions: Escherichia coli, ATCC25922, 22 h
# Method in brief: (§1)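 Colonies grown 20 h at 35° C on Trypticase Soy agar (MRSA) or Luria agar (E. coli) were suspended in cation-adjusted Mueller Hinton broth with 0.002% Tween-80. Suspensions were added at OD600 0.0005 to 10-point twofold compound dilutions, then incubated 22 h at 35° C.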
# [2] = system: Methicillin Resistant Staphylococcus aureus strain USA 200; assay: Minimum inhibitory concentration (MIC), CLSI broth micro-dilution, S. aureus; assay type: cell-based; conditions: Staphylococcus aureus, MRSA / USA200, MRSA USA 200, cation adjusted Mueller Hinton Broth + 0.002% Tween-80, 35° C., 22 hours
# Method in brief: as §1
# [3] = Table 6, cation adjusted Mueller Hinton Broth + 0.002% Tween-80, 35° C.
SMILES,"MIC [1, 3]",MIC ([2]; Table 6),"MIC ([1]; Table 8, cation adjusted Mueller Hinton Broth + 0.002% Tween-80, 35° C.)",MIC ([2]; Table 8)
"Cc1nc(-c2ccc3c(c2)OCCO3)nc(C)c1C(=O)N[C@@H](CCN)C(=O)N(C)[C@@H]1C(=O)N[C@@H](C)C(=O)N[C@H](C(=O)NCC#N)Cc2ccc(OCCN)c(c2)-c2cc1ccc2OCCN (racemic) [Compound 334, rac-(8S,11S,14S)-3,18-bis(2-aminoethoxy)-N-(cyanomethyl)-11-methyl-14-[methyl-[rac-(2S)-4-amino-2-[[2-(2,3-dihydro-1,4-benzodioxin-6-yl)-4,6-dimethyl-pyrimidine-5-carbonyl]amino]butanoyl]amino]-10,13-dioxo-9,12-diazatricyclo[13.3.1.12,6]icosa-1(18),2(20),3,5,15(19),16-hexaene-8-carboxamide]",4 µM,0.5 µM,,
"Cc1nc(-c2ccc(C(C)(C)C)cc2)nc(C)c1C(=O)N[C@@H](CCN)C(=O)N(C)[C@@H]1C(=O)N[C@@H](C)C(=O)N[C@H](C(=O)O)Cc2ccc(OCCN)c(c2)-c2cc1ccc2OCCN (racemic) [Compound 645, rac-(8S,11S,14S)-3,18-bis(2-aminoethoxy)-11-methyl-14-[methyl-[rac-(2S)-4-amino-2-[[2-(4-tert-butylphenyl)-4,6-dimethyl-pyrimidine-5-carbonyl]amino]butanoyl]amino]-10,13-dioxo-9,12-diazatricyclo [13.3.1.12,6]icosa-1(18),2(20),3,5,15(19), 16-hexaene-8-carboxylic acid]",,,0.4 µM,0.52 µM
"CCCCCCCc1ccc(C(=O)N[C@@H](CCN)C(=O)N(C)[C@@H]2C(=O)N[C@@H](CC)C(=O)N[C@H](C(=O)NCC#N)Cc3ccc(OCCN)c(c3)-c3cc2ccc3OCCN)c(C)c1 (racemic) [Compound 479, rac-(8S,11S,14S)-3,18-bis(2-aminoethoxy)-N-(cyanomethyl)-11-ethyl-14-[methyl-[rac-(2S)-4-amino-2-[(4-heptyl-2-methyl-benzoyl)amino]butanoyl]amino]-10,13-dioxo-9,12-diazatricyclo[13.3.1.12,6]icosa-1(18),2(20),3,5,15(19),16-hexaene-8-carboxamide]",0.77 µM,0.027 µM,,
"CCCCCCCCc1ccc(C(=O)N[C@@H](CC(=O)NC)C(=O)N(C)[C@@H]2C(=O)N[C@@H](C)C(=O)N[C@H](C(=O)NCC#N)Cc3ccc(OCCN)c(c3)-c3cc2ccc3OCCN)c(C)c1 (racemic) [Compound 443, rac-(2S)-N,N′-dimethyl-2-[(2-methyl-4-octyl-benzoyl)amino]-N-[rac-(7S,10S,13S)-3,18-bis(2-aminoethoxy)-13-(cyanomethylcarbamoyl)-10-methyl-8,11-dioxo-9,12-diazatricyclo[13.3.1.12,6]icosa-1(19),2,4,6(20),15,17-hexaen-7-yl]butanediamide]",4.2 µM,0.27 µM,,
"CCCCCCCCc1ccc(C(=O)N[C@@H](CCC(=O)NC(CO)CO)C(=O)N(C)[C@@H]2C(=O)N[C@@H](C)C(=O)N[C@H](C(=O)NCC#N)Cc3ccc(OCCN)c(c3)-c3cc2ccc3OCCN)c(C)c1 (racemic) [Compound 448, rac-(2S)-N′-[2-hydroxy-1-(hydroxymethyl)ethyl]-N-methyl-2-[(2-methyl-4-octyl-benzoyl)amino]-N-[rac-(7S,10S,13S)-3,18-bis(2-aminoethoxy)-13-(cyanomethylcarbamoyl)-10-methyl-8,11-dioxo-9,12-diazatricyclo[13.3.1.12,6]icosa-1(19),2,4,6(20),15,17-hexaen-7-yl]pentanediamide]",4.1 µM,0.13 µM,,
"CCCCc1ccc(-c2ncc(C(=O)N[C@@H](CCN)C(=O)N(C)[C@@H]3C(=O)N[C@@H](C)C(=O)N[C@H](C(=O)NCC#N)Cc4ccc(OCCN)c(c4)-c4cc3ccc4OCCN)c(C)n2)c(Cl)c1 (racemic) [Compound 235, rac-(8S,11S,14S)-3,18-bis(2-aminoethoxy)-N-(cyanomethyl)-11-methyl-14-[methyl-[rac-(2S)-4-amino-2-[[2-(4-butyl-2-chloro-phenyl)-4-methyl-pyrimidine-5-carbonyl]amino]butanoyl]amino]-10,13-dioxo-9,12-diazatricyclo[13.3.1.12,6]icosa-1(18),2(20),3,5,15(19),16-hexaene-8-carboxamide]",0.26 µM,0.016 µM,,
"CCCCCCc1ccc(C(=O)N[C@@H](CCN)C(=O)N(CCO)[C@@H]2C(=O)N[C@@H](C)C(=O)N[C@H](C(=O)NCC#N)Cc3ccc(O)c(c3)-c3cc2ccc3O)c(C)c1 (racemic) [Compound 475, rac-(8S,11S,14S)-N-(cyanomethyl)-3,18-dihydroxy-14-[2-hydroxyethyl-[rac-(2S)-4-amino-2-[(4-hexyl-2-methyl-benzoyl)amino]butanoyl]amino]-11-methyl-10,13-dioxo-9,12-diazatricyclo[13.3.1.12,6]icosa-1(18),2(20),3,5,15(19),16-hexaene-8-carboxamide]",4.8 µM,0.6 µM,,
"CCCCOc1c(C)cc(-c2ncc(C(=O)N[C@@H](CCN)C(=O)N(C)[C@@H]3C(=O)N[C@@H](C)C(=O)N[C@H](C(=O)NCC#N)Cc4ccc(OCCN)c(c4)-c4cc3ccc4OCCN)c(C)n2)cc1C (racemic) [Compound 243, rac-(8S,11S,14S)-3,18-bis(2-aminoethoxy)-N-(cyanomethyl)-11-methyl-14-[methyl-[rac-(2S)-4-amino-2-[[2-(4-butoxy-3,5-dimethyl-phenyl)-4-methyl-pyrimidine-5-carbonyl]amino]butanoyl]amino]-10,13-dioxo-9,12-diazatricyclo[13.3.1.12,6]icosa-1(18),2(20),3,5,15(19),16-hexaene-8-carboxamide]",0.13 µM,0.008 µM,,

# Further compounds by falling MIC [1, 3], results first:
"MIC [1, 3]",MIC ([2]; Table 6),"MIC ([1]; Table 8, cation adjusted Mueller Hinton Broth + 0.002% Tween-80, 35° C.)",MIC ([2]; Table 8),SMILES
0.26 µM,0.033 µM,,,"CCCOc1ccc(-c2nc(C)c(C(=O)N[C@@H](CCN)C(=O)N(C)[C@@H]3C(=O)N[C@@H](C)C(=O)N[C@H](C(=O)NCC#N)Cc4ccc(OCCN)c(c4)-c4cc3ccc4OCCN)c(C)n2)cc1 (racemic) [Compound 330, rac-(8S,11S,14S)-3,18-bis(2-aminoethoxy)-N-(cyanomethyl)-11-methyl-14-[methyl-[rac-(2S)-4-amino-2-[[4,6-dimethyl-2-(4-propoxyphenyl)pyrimidine-5-carbonyl]amino]butanoyl]amino]-10,13-dioxo-9,12-diazatricyclo[13.3.1.12,6]icosa-1(18),2(20),3,5,15(19),16-hexaene-8-carboxamide]"
0.25 µM,0.016 µM,,,"Cc1cc(-c2ccc(C(C)(C)C)cc2)nc(N)c1C(=O)N[C@@H](CCN)C(=O)N(C)[C@@H]1C(=O)N[C@@H](C)C(=O)N[C@H](C(=O)NCC#N)Cc2ccc(OCCN)c(c2)-c2cc1ccc2OCCN (racemic) [Compound 414, rac-(8S,11S,14S)-3,18-bis(2-aminoethoxy)-N-(cyanomethyl)-11-methyl-14-[methyl-[rac-(2S)-4-amino-2-[[2-amino-6-(4-tert-butylphenyl)-4-methyl-pyridine-3-carbonyl]amino]butanoyl]amino]-10,13-dioxo-9,12-diazatricyclo[13.3.1.12,6]icosa-1(18),2(20),3,5,15(19),16-hexaene-8-carboxamide]"
0.25 µM,0.031 µM,,,"C[C@@H]1NC(=O)[C@@H](N(C)C(=O)[C@H](CCN)NC(=O)[C@H]2CC[C@H](c3ccc(C(C)(C)C)cc3)CC2)c2ccc(OCCN)c(c2)-c2cc(ccc2OCCN)C[C@@H](C(=O)NCC#N)NC1=O [Compound 391, rac-(8S,11S,14S)-3,18-bis(2-aminoethoxy)-N-(cyanomethyl)-11-methyl-14-[methyl-[rac-(2S)-4-amino-2-[[4-(4-tert-butylphenyl)cyclohexanecarbonyl]amino]butanoyl]amino]-10,13-dioxo-9,12-diazatricyclo[13.3.1.12,6]icosa-1(18),2(20),3,5,15(19),16-hexaene-8-carboxamide]"
0.21 µM,0.023 µM,,,"Cc1nc(-c2ccc(C(C)(C)C)cc2)nc(C)c1C(=O)N[C@@H](CCN)C(=O)N(C)[C@@H]1C(=O)N[C@@H](C)C(=O)N[C@H](C(=O)NCC#N)Cc2ccc(OCCCN)c(c2)-c2cc1ccc2OCCCN (racemic) [Compound 434, rac-(8S,11S,14S)-3,18-bis(3-aminopropoxy)-N-(cyanomethyl)-11-methyl-14-[methyl-[rac-(2S)-4-amino-2-[[2-(4-tert-butylphenyl)-4,6-dimethyl-pyrimidine-5-carbonyl]amino]butanoyl]amino]-10,13-dioxo-9,12-diazatricyclo[13.3.1.12,6]icosa-1(18),2(20),3,5,15(19),16-hexaene-8-carboxamide]"
0.13 µM,0.0062 µM,,,"CCc1nc(-c2ccc(CC(C)C)cc2)ncc1C(=O)N[C@@H](CCN)C(=O)N(C)[C@@H]1C(=O)N[C@@H](C)C(=O)N[C@H](C(=O)NCC#N)Cc2ccc(OCCN)c(c2)-c2cc1ccc2OCCN (racemic) [Compound 417, rac-(8S,11S,14S)-3,18-bis(2-aminoethoxy)-N-(cyanomethyl)-11-methyl-14-[methyl-[rac-(2S)-4-amino-2-[[4-ethyl-2-(4-isobutylphenyl)pyrimidine-5-carbonyl]amino]butanoyl]amino]-10,13-dioxo-9,12-diazatricyclo[13.3.1.12,6]icosa-1(18),2(20),3,5,15(19),16-hexaene-8-carboxamide]"

# Reference: US20260274892A1, “MACROCYCLIC BROAD SPECTRUM ANTIBIOTICS” (RQx Pharmaceuticals, Inc., priority 2017, published 2026)
